Assays:
human Mincle = biological target: T1, human Mincle (Homo sapiens, UniProt Q9ULY5); assay: HEK cells expressing human Mincle with NF-κB-driven SEAP reporter; assay type: cell-based; settings: plate-coated compound, 24 h; for EC50: average calculated EC50, n = 3, read-out: hMincle EC50 (converted)
T1 construct: host or cells: HEK (HEK-Blue) cells with NF-κB-driven SEAP reporter
T1 sequence (Q9ULY5 1-219): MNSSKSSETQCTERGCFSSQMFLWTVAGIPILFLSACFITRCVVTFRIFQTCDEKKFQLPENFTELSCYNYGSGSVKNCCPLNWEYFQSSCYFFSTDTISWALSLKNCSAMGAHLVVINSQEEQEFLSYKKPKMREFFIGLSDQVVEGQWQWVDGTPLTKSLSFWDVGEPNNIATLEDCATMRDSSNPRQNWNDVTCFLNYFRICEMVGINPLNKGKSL
Method: (§1) Human and mouse Mincle expressing HEK cells were obtained from Invivogen (San Diego, CA). Cells were cultured according to the manufactures instructions in DMEM with 10% FBS, 50 U/ml penicillin, […] streptomycin, […] Normocin, 2 mM L-glutamine, 30 μg/ml blasticidin, 1 μg/ml puromycin and 1x HEK-Blue™ CLR Selection. For assay, indicated compounds were serially diluted in diluent (50%IPA/50% isooctane), 20 μl of a 10x final concentration were applied to the bottom of a 96-well tissue culture plate and the solvent was evaporated for >1 h in a biosafety hood. HEK cells were applied to the plates at a density of 3 × 10^5 cells/well and incubated for 18–24 h at 37°C. Cell supernatants were harvested and analyzed via the manufacturer's instructions using Hek-Blue^TM Detection. SEAP activity was assessed by reading the optical density (OD) at 620–655 nm with a microplate reader; data are expressed as the fold change in OD over vehicle treated cells.
(§2) To investigate the capacity of these molecules to bind to and activate the Mincle receptor, we used human embryonic kidney (HEK) cells expressing the human or mouse Mincle receptor along with an NF-κB-driven secreted embryonic alkaline phosphatase (SEAP) reporter. Many of the αTDE compounds were able to induce production of SEAP in a dose dependent manner (Figure 2). HEK null cells (HEK cells containing the NF-kB reporter without Mincle receptor) were used as a negative controls to confirm the receptor specificity of the compounds in HEK cells expressing human or mouse Mincle reporter (Supplemental Figure 4). […] The relative activity of TDM and TDB in the human and mouse HEK cells is consistent with the results reported by others ([20]). […] This synthetic version is a shorter chain version of the lipid-derived one reported to be “human-specific” ([28]).
(§3) Figure 2 Activation of human or mouse Mincle in response to synthetic αTDE compounds. The indicated compounds were dissolved in 50% isopropanol/isooctane, serially diluted in vehicle and then dried to the bottom of a tissue culture plate. HEK cells transfected with human (A–C) or mouse (D–F) Mincle and an NF-κB-driven SEAP reporter were incubated with the compounds for 24 h followed by assessment of the supernatants for SEAP levels. Data are represented as fold change in OD650 over vehicle treated cells. Graphs are mean values from three independent experiments ± SEM. Table in (G) represents the average calculated EC50 and average max SEAP value (± SD, n = 3) for each compound in each cell line. […]

mouse Mincle = biological target: T2, mouse Mincle (Mus musculus, UniProt Q9R0Q8); assay: HEK cells expressing mouse Mincle with NF-κB-driven SEAP reporter; assay type: cell-based; settings: for EC50: average calculated EC50, n = 3, read-out: mMincle EC50 (converted); for EC50 / SEAP induction / activation of mouse Mincle-expressing HEK cells (in words): plate-coated compound, 24 h; for Relative activity in mouse vs. human Mincle HEK cells: comparison of mouse and human Mincle receptor transfected HEK cells
T2 construct: host or cells: HEK (HEK-Blue) cells with NF-κB-driven SEAP reporter
T2 sequence (Q9R0Q8 1-214): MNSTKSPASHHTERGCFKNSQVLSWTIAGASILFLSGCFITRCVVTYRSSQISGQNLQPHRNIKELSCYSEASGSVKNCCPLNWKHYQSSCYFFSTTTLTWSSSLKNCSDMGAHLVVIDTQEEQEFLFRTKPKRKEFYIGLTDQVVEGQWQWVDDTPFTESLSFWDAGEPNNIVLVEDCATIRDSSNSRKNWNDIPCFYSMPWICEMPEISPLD
Method: as §1, §2, §3

[1] = test system: Hek Blue human or mouse Mincle-expressing cells; assay type: cell-based; settings: top concentrations, 24 h; compared with vehicle only-treated cells
THP-1 cells = assay: TNFα production from THP-1 cells (ELISA); assay type: cell-based, human; settings: plate-coated compound, 24 h
Method: (§4) Supernatants were harvested from treated cells following 18–24 h of incubation. Supernatants were analyzed using a DuoSet TNFα ELISA (R&D Systems, Minneapolis, MN) or Luminex multiplex panel for analytes TNFα, IL-1β, IL-6, IFNγ, IL-12p70, and IL-23 (R&D Systems) per the manufacturer's instructions. Multiplex analysis was performed using a Luminex 200 instrument (Luminex Corporation) and analyzed with StarStation2.3 software. ELISAs were read on a plate reader at 450 nm and cytokine concentration was calculated by fitting the standard curve OD values to a 4-parameter logistical model using curve fitting software (XLfit, IDBS, Alameda, CA).
Next, investigation into activity of the alpha-branched TDE compounds was extended to include both human and murine monocytic cell lines, THP-1 and RAW264.7, respectively. These cell lines have previously been reported as responsive to the Mincle receptor agonists TDM and TDB ([30], [31]).
Figure 3 TNFα production from human THP-1 cells in response to stimulation with synthetic αTDE compounds. The indicated compounds were dissolved in 50% isopropanol/isooctane, serially diluted in vehicle and then dried to the bottom of a tissue culture plate. THP-1 cells were applied to the compound-coated plates and incubated at 37°C; supernatant was harvested 24 h later and analyzed for TNFα via ELISA (A-E). Results from the 200 μg/ml concentration vs. each compounds acyl chain length are shown in (F). Data points are average of at least two independent experiments ± SD.

primary human PBMCs = assay: Cytokine production from primary human PBMCs (multiplex); assay type: cell-based; settings: plate-coated compound, 24 h, 5 individual donors
Excerpt: PBMCs were obtained via leukapheresis from normal donors (AllCells, Berkeley, CA) or fresh blood was obtained from health human donors through a University of Montana Institutional Review Board (IRB) approved protocol. PBMCs obtained via leukapheresis were washed in 1x PBS and cryopreserved in freezing media (50% RPMI, 40% FCS, 10% DMSO) for future use. PBMCs from on-site human donors were separated from whole blood via density gradient separation using Histopaque 1077 (Sigma). Cells were washed in RPMI media containing 10% heat inactivated FBS, penicillin/streptomycin/glutamine (complete media) and resuspended at the desired cell concentration in complete media. Cells were treated with the indicated compound concentrations by addition to plates coated with a serial dilution of the stock compound in diluent (50% isopropanol/50% isooctane, fully evaporated).
as §4
To determine if the abridged cytokine repertoire induced by the compounds from the cell lines was a cell-specific or compound-specific phenomenon, the response of a heterogeneous primary human PBMCs to the αTDE compound library was also evaluated. Primary human PBMCs were incubated with the αTDE compound and supernatants were evaluated by multiplex cytokine ELISA for TNFα, IL-1β, IL-23, IL-6 (Th17 associated) and IFNγ and IL-12p70 (Th1 associated). As with THP-1 cells, robust dose-responsive induction of TNFα and IL-1β was detected, but unlike the THP-1 cells dose-responsive stimulation of IL-6 and IL-23 production was also noted in response to a subset of the αTDE compounds (Figure 5). No production of the Th1-associated IFNγ or IL-12p70 were detected (data not shown). […] Consistent with the previous THP-1 cell responses, the longer chain length compounds, B32-B46, induced minimal cytokine responses only at the highest dose evaluated (Figure 5, right graphs).
Figure 5 Cytokine production from primary human mononuclear cells in response to stimulation with synthetic trehalose diester compounds. […] Cryopreserved PBMCs were thawed and applied to the compound-coated plates and incubated at 37°C; supernatant was harvested 24 h later and analyzed for TNFα, IL-1β, IL-23, IL-6. […]

Structure (SMILES)	EC50 (human Mincle)	EC50 (mouse Mincle)	Cell viability of Mincle HEK cells [1]	other results
CCCCCCCCCCCCCCCCCC(CCCCCCCCCCCCCCCCC)C(=O)OC[C@H]1O[C@H](O[C@H]2O[C@H](COC(=O)C(CCCCCCCCCCCCCCCCC)CCCCCCCCCCCCCCCCC)[C@@H](O)[C@H](O)[C@H]2O)[C@H](O)[C@@H](O)[C@@H]1O [Compound B36]	21400 nM	25800 nM	–	–
CCCCCCCCCCCC(CCCCCCCCCCC)C(=O)OC[C@H]1O[C@H](O[C@H]2O[C@H](COC(=O)C(CCCCCCCCCCC)CCCCCCCCCCC)[C@@H](O)[C@H](O)[C@H]2O)[C@H](O)[C@@H](O)[C@@H]1O [Compound B24]	92.6 nM	608 nM	less substantial decreases	–
CCCCCCCCCCCCC(CCCCCCCCCCCC)C(=O)OC[C@H]1O[C@H](O[C@H]2O[C@H](COC(=O)C(CCCCCCCCCCCC)CCCCCCCCCCCC)[C@@H](O)[C@H](O)[C@H]2O)[C@H](O)[C@@H](O)[C@@H]1O [Compound B26]	263 nM	907 nM	–	TNFα induction from THP-1 cells (in words) (THP-1 cells): roughly equivalent levels of TNFα as B14/B16
CCCCCCCCCCC(CCCCCCCCCC)C(=O)OC[C@H]1O[C@H](O[C@H]2O[C@H](COC(=O)C(CCCCCCCCCC)CCCCCCCCCC)[C@@H](O)[C@H](O)[C@H]2O)[C@H](O)[C@@H](O)[C@@H]1O [Compound B22]	322 nM	689 nM	less substantial decreases	–
CCCCCCCCCCCCCCCC(O)C(CCCCCCCCCCCCCC)C(=O)OCC(O)CO (stereo not drawn) [MMG, synthetic glycerol monomycolate, reference compound]	–	–	–	SEAP induction / activation of human Mincle-expressing HEK cells (in words) (human Mincle): able to activate; Relative activity in mouse vs. human Mincle HEK cells (mouse Mincle): more potent in mouse Mincle HEK cells; SEAP induction / activation of mouse Mincle-expressing HEK cells (in words) (mouse Mincle): able to activate; TNFα induction from THP-1 cells (in words) (THP-1 cells): potent, robust induction of TNFα
CCCCCCCCCCCCCCC(CCCCCCCCCCCCCC)C(=O)OC[C@H]1O[C@H](O[C@H]2O[C@H](COC(=O)C(CCCCCCCCCCCCCC)CCCCCCCCCCCCCC)[C@@H](O)[C@H](O)[C@H]2O)[C@H](O)[C@@H](O)[C@@H]1O [Compound B30]	43.8 nM	955 nM	–	–
CCCCCCCCCC(CCCCCCCCC)C(=O)OC[C@H]1O[C@H](O[C@H]2O[C@H](COC(=O)C(CCCCCCCCC)CCCCCCCCC)[C@@H](O)[C@H](O)[C@H]2O)[C@H](O)[C@@H](O)[C@@H]1O [Compound B20]	128 nM	328 nM	less substantial decreases	–
CCCCCCC(CCCCCC)C(=O)OC[C@H]1O[C@H](O[C@H]2O[C@H](COC(=O)C(CCCCCC)CCCCCC)[C@@H](O)[C@H](O)[C@H]2O)[C@H](O)[C@@H](O)[C@@H]1O [Compound B14]	–	1520 nM	less substantial decreases	–
CCCCCCCCC(CCCCCCCC)C(=O)OC[C@H]1O[C@H](O[C@H]2O[C@H](COC(=O)C(CCCCCCCC)CCCCCCCC)[C@@H](O)[C@H](O)[C@H]2O)[C@H](O)[C@@H](O)[C@@H]1O [Compound B18]	405 nM	599 nM	less substantial decreases	–
CCCCCC(CCCCC)C(=O)OC[C@H]1O[C@H](O[C@H]2O[C@H](COC(=O)C(CCCCC)CCCCC)[C@@H](O)[C@H](O)[C@H]2O)[C@H](O)[C@@H](O)[C@@H]1O [Compound B12]	–	1260 nM	marked decreases in viability	–
CCCCCCCCCCCCCC(CCCCCCCCCCCCC)C(=O)OC[C@H]1O[C@H](O[C@H]2O[C@H](COC(=O)C(CCCCCCCCCCCCC)CCCCCCCCCCCCC)[C@@H](O)[C@H](O)[C@H]2O)[C@H](O)[C@@H](O)[C@@H]1O [Compound B28]	77.4 nM	592 nM	–	–
CC(C)C(=O)OC[C@H]1O[C@H](O[C@H]2O[C@H](COC(=O)C(C)C)[C@@H](O)[C@H](O)[C@H]2O)[C@H](O)[C@@H](O)[C@@H]1O [Compound B4]	–	–	–	Th17-associated cytokine production (TNFα, IL-1β, IL-6, IL-23) from human PBMCs (primary human PBMCs): mixed responses
CCCCCCCCCCCCCCCC(O)C(CCCCCCCCCCCCCC)C(=O)OC[C@H]1O[C@H](O[C@H]2O[C@H](COC(=O)C(CCCCCCCCCCCCCC)C(O)CCCCCCCCCCCCCCC)[C@@H](O)[C@H](O)[C@H]2O)[C@H](O)[C@@H](O)[C@@H]1O (stereo partly drawn) [sTDCM, synthetic trehalose dicorynomycolate, reference compound]	–	–	–	SEAP induction / activation of human Mincle-expressing HEK cells (in words) (human Mincle): robust ability to activate; Relative activity in mouse vs. human Mincle HEK cells (mouse Mincle): more potent in the mouse vs. the human; SEAP induction / activation of mouse Mincle-expressing HEK cells (in words) (mouse Mincle): robust ability to activate; TNFα induction from THP-1 cells (in words) (THP-1 cells): potent, robust induction of TNFα
CCCCCCCCCCCCCCCC(CCCCCCCCCCCCCCC)C(=O)OC[C@H]1O[C@H](O[C@H]2O[C@H](COC(=O)C(CCCCCCCCCCCCCCC)CCCCCCCCCCCCCCC)[C@@H](O)[C@H](O)[C@H]2O)[C@H](O)[C@@H](O)[C@@H]1O [Compound B32]	50.2 nM	64.4 nM	–	–

From paper PMC6403188, “Species-Specific Structural Requirements of Alpha-Branched Trehalose Diester Mincle Agonists” (Frontiers in Immunology, 2019)
